Test results reported in US20240368121A1, “ESTROGEN RECEPTOR DEGRADERS, PHARMACEUTICAL COMPOSITIONS THEREOF, AND THEIR THERAPEUTIC APPLICATIONS” (BioTheryX, Inc., priority 2021, published 2024).

Legend:
Format in all cases: cell-based
MCF7 cells = experiment: Cell viability assay ([…]-GLO, 6-day treatment); details: Homo sapiens, MCF7, 144 h; MCF-7 cells, 6 days, CTG; read-out: Inhibition of Cancerous Cells IC50 MCF-7
Outline: (§1)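 MCF7 (MEM) and T47D (RPMI with insulin), both with 10% FBS, at 1,000 cells/well, treated with a 10-point compound dose series for 6 days, with medium and compound refreshed once. Viability read by CellTiter-Glo luminescence.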

T47D cells = experiment: Cell viability assay ([…]-GLO, 6-day treatment); details: Homo sapiens, 144 h, 6 days, CTG, read-out: Inhibition of Cancerous Cells IC50 T47D
Outline: as §1

ERα = target: T1, ERα (Homo sapiens, UniProt P03372); experiment: Protein degradation assay: ERα in MCF-7 cells via western blot; details: 6 h; for ERα Protein Degradation 1 nM: 1 nM compound; for ERα Protein Degradation 10 nM: 10 nM compound; for ERα Protein Degradation 100 nM: 100 nM compound
T1 construct: degrading an ERα in MCF-7 cells via a western blot; endogenous in cells; host or cells: MCF-7
T1 sequence (P03372 1-595): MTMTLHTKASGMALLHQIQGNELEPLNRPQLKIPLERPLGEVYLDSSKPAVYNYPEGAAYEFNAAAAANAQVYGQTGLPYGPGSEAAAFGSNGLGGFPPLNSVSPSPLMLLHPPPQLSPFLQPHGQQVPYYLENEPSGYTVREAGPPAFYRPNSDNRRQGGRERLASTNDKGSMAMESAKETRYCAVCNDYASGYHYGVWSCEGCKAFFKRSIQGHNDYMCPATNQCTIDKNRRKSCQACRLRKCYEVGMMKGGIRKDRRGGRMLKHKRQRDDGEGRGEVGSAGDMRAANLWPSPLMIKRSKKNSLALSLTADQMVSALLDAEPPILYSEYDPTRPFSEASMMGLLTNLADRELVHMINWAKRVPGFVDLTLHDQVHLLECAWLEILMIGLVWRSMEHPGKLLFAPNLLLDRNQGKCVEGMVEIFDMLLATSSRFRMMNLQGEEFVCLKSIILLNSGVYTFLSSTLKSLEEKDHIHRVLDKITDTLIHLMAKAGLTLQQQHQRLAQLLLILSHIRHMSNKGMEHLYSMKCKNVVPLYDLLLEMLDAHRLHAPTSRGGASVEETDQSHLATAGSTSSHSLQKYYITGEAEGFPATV
Outline: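 MCF-7 cells in MEM/10% FBS with insulin, seeded 300,000/well, treated 6 h at set concentrations (e.g., 1 nM–1 μM). Whole-cell lysates immunoblotted for ERα with GAPDH loading control, chemiluminescent detection; percentage degradation reported in binned categories (≥50%, 25–50%, 10–25%, <10%).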

Row | IC50 (MCF7 cells) [nM] | IC50 (T47D cells) [nM] | SMILES | ERα Protein Degradation 1 nM (ERα) | ERα Protein Degradation 10 nM (ERα) | ERα Protein Degradation 100 nM (ERα)
1 | 1.8 | 1.3 | Cc1c(-c2ccc(O)cc2)n(Cc2ccc(OCCCCN3CCN(C(=O)COc4ccc5c(N6CCC(=O)NC6=O)nn(C)c5c4)CC3)cc2)c2ccc(O)cc12 [Compound E16, 1-(6-(2-(4-(4-(4-((5-Hydroxy-2-(4-hydroxyphenyl)-3-methyl-1H-indol-1-yl)-methyl)phenoxy)butyl)piperazin-1-yl)-2-oxoethoxy)-1-methyl-1H-indazol-3-yl)dihydro-pyrimidine-2,4(1H,3H)-dione] | C (a percentage degradation value of less than 25% and no less than 10%) | C (a percentage degradation value of less than 25% and no less than 10%) | D (a percentage degradation value of less than 10%)
2 | 4.5 | 3.2 | Cc1c(-c2ccc(O)cc2)n(Cc2ccc(OCCCCN3CCN(C(=O)COc4ccc5c(c4)CN(C4CCC(=O)NC4=O)C5=O)CC3)cc2)c2ccc(O)cc12 (stereo not shown) [Compound E3, 3-(5-(2-(4-(4-(4-((5-Hydroxy-2-(4-hydroxyphenyl)-3-methyl-1H-indol-1-yl)-methyl)phenoxy)butyl)piperazin-1-yl)-2-oxoethoxy)-1-oxoisoindolin-2-yl)piperidine-2,6-dione] | B (a percentage degradation value of less than 50% and no less than 25%) | B (a percentage degradation value of less than 50% and no less than 25%) | B (a percentage degradation value of less than 50% and no less than 25%)
